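Grown in 96-well plates, cells were treated for 48 hours with each compound at five concentrations. Insufficient inhibition: endpoint recorded as highest concentration tested. The concentration for 50% growth inhibition is given as GI50.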 Activity calls are given as the source filed them. No stated cut-off is given here; in the data, active = GI50 up to about 1.1 µM and inactive = higher.
Columns and labels:
Experiment in all cases: NCI anticancer screen, dose series, 48 h
NCI-H226 = system: NCI-H226
SK-MEL-2 = system: SK-MEL-2
LOX IMVI = system: LOX IMVI
HCT-116 = system: HCT-116
ACHN = system: ACHN
SNB-75 = system: SNB-75
OVCAR-8 = system: OVCAR-8
T47D = system: T47D
OVCAR-3 = system: OVCAR-3
SK-MEL-5 = system: SK-MEL-5
CAKI-1 = system: CAKI-1
HT-29 = system: HT-29
HOP-92 = system: HOP-92
MCF7 = system: MCF7
SN12C = system: SN12C
KM12 = system: KM12
SK-MEL-28 = system: SK-MEL-28
A498 = system: A498
SK-OV-3 = system: SK-OV-3
A549 = system: A549

Measured: GI50

O=C(NNCc1ccc(Cl)cc1)Nc1cccc2ccccc12
inactive: NCI-H226 > 100 µM | SK-MEL-2 > 100 µM | LOX IMVI > 100 µM | HCT-116 63 µM | ACHN 45 µM | SNB-75 > 100 µM | OVCAR-8 > 100 µM | T47D 28.6 µM | OVCAR-3 > 100 µM | SK-MEL-5 76.2 µM | CAKI-1 42.7 µM | HT-29 > 100 µM | HOP-92 29.3 µM | MCF7 26.8 µM | SN12C > 100 µM | KM12 68.4 µM | SK-MEL-28 > 100 µM

COc1ccc(Nc2nnc(CCCCCCCCc3nnc(Nc4ccc(OC)cc4)o3)o2)cc1
inactive: NCI-H226 > 100 µM | SK-MEL-2 > 100 µM | A498 > 100 µM | SK-OV-3 > 100 µM | LOX IMVI > 100 µM | HCT-116 > 100 µM | ACHN > 100 µM | SNB-75 > 100 µM | A549 > 100 µM | OVCAR-8 > 100 µM | OVCAR-3 > 100 µM | SK-MEL-5 > 100 µM | CAKI-1 > 100 µM | HT-29 > 100 µM | HOP-92 > 100 µM | MCF7 > 100 µM | SN12C > 100 µM | KM12 > 100 µM | SK-MEL-28 > 100 µM

Cc1cnc2sn(-c3ccc(Oc4ccccc4)cc3)c(=O)c2c1
inactive: NCI-H226 18.2 µM | SK-MEL-2 28.3 µM | SK-OV-3 25.8 µM | LOX IMVI 6.1 µM | HCT-116 14 µM | ACHN 13.7 µM | SNB-75 17.9 µM | A549 16.8 µM | OVCAR-8 28.8 µM | T47D 14 µM | OVCAR-3 6.11 µM | SK-MEL-5 9.59 µM | HT-29 18.2 µM | MCF7 22.4 µM | SN12C 17.9 µM | KM12 13.4 µM | SK-MEL-28 10.3 µM

CC(C)CCC[C@@H](C)[C@H]1CCC2C3CC=C4C[C@@H](Oc5c6ccccc6nc6ccccc56)CCC4C3CCC21 (stereo not given in full)
inactive: NCI-H226 > 50 µM | SK-MEL-2 > 50 µM | SK-OV-3 > 50 µM | LOX IMVI > 50 µM | HCT-116 > 50 µM | ACHN > 50 µM | A549 > 50 µM | OVCAR-8 > 50 µM | T47D > 50 µM | OVCAR-3 > 50 µM | SK-MEL-5 > 50 µM | CAKI-1 > 50 µM | HT-29 > 50 µM | HOP-92 > 50 µM | SN12C > 50 µM | KM12 > 50 µM | SK-MEL-28 > 50 µM

COC[C@@H](/N=C/c1ccc(OC)cc1)C(C)C
inactive: SK-MEL-2 > 100 µM | SK-OV-3 > 100 µM | LOX IMVI > 100 µM | HCT-116 > 100 µM | ACHN > 100 µM | SNB-75 > 100 µM | A549 > 100 µM | OVCAR-8 > 100 µM | T47D > 100 µM | SK-MEL-5 > 100 µM | CAKI-1 > 100 µM | HT-29 > 100 µM | MCF7 > 100 µM | SN12C > 100 µM | KM12 > 100 µM | SK-MEL-28 > 100 µM

Cc1ccc(S(=O)(=O)NC(=O)NC(Cc2c[nH]c3ccccc23)C(=O)O)cc1 (stereo not given)
inactive: SK-MEL-2 > 100 µM | SK-OV-3 > 100 µM | LOX IMVI > 100 µM | HCT-116 > 100 µM | SNB-75 > 100 µM | A549 > 100 µM | OVCAR-8 > 100 µM | T47D > 100 µM | SK-MEL-5 > 100 µM | HT-29 > 100 µM | HOP-92 > 100 µM | SN12C > 100 µM | KM12 > 100 µM | SK-MEL-28 > 100 µM
